# Source: patent EP0250254A1, “Cis & trans stilbenes and their composition for the treatment of hypertension” (McNeilab, Inc., priority 1986, dated 1987)
# Where a name gives a salt, the structure may show the parent alone. Read-outs that look alike come from different tables or passages of the source. Marks after values point to notes of the source that are not given here.
# Assays:
# [1] = tested on: spontaneously hypertensive rats; assay: Spontaneously Hypertensive Rat (SHR) test, arterial pressure monitored via aortic cannula; type: in vivo; settings: SH rats
# Procedure: The activity of compounds of formula (I) for the treatment of hypertension was determined using the Spontaneously Hypertensive Rat (SHR) test as described below.
# In this test, the arterial pressure of adult spontaneously hypertensive rats (Charles River) is monitored directly via an aortic cannula. The SH rats are anesthetized with an intravenous anesthetic (methohexital). The left carotid artery is isolated and cannulated. The tip of the cannula is advanced to the aorta and the cannula is exteriorized behind the neck at the level of the scapula. Animals are placed in individual cages and allowed to recover from the anesthetic and are kept unrestrained. The arterial cannula is connected to the pressure transducer which is attached to the recorder. The test compounds are administered to at least 3 rats at doses selected in the range of 0.l to l00 mg/kg of body weight by intraperitoneal (i.p.) or oral (p.o.) routes of administration. The arterial pressure and heart rate are monitored for a minimum of 22 hours. A test compound is considered to be active as an antihypertensive agent if the mean arterial pressure (MAp) indicates a fall of >l5 mm of Hg. Each animal serves as its own control.
# The results of this test for compounds of formula (I). expressed as "Max Fall Bp" (Maximum Fall in Mean Arterial pressure) are shown in Table I.
# [2] = tested on: coronary arteries; assay: Langendorff's isolated heart preparation, increase in coronary flow; settings: read-out: EC30 (minimum concentration needed to elicit a 30 percent increase in coronary flow)
# Procedure: In addition to their utility in the treatment of hypertension, the compounds of formula (I) are useful in the treatment of the symptoms of angina pectoris by virtue of their ability to dilate coronary arteries. Their activity was measured using the "Langendorff's isolated heart" preparation. This test has been described in "Pharmacological Experiments on Isolated Preparations", Staff of the Department of Pharmacology, University of Edinborough, 2nd Ed., Churchill Livingstone, N.Y., l970, pp. ll2-ll9. The test compounds were administered at concentrations of 3000, l000, 300, l00, 30, l0, 3, l and 0.3 nanomolar (l0⁻⁹ molar).
# The minimum concentration (EC₃₀) needed to elicit a 30 percent increase in coronary flow is shown in Table I for compounds of the formula (I) with […].
# [3] = dose 30 mg/kg of body weight p.o., salt form tested per footnotes
SMILES,"Max Fall BP (Maximum Fall in Mean Arterial pressure) [1, 3]",EC30 ([2]; salt form tested per footnotes) [nM],"Max Fall BP (Maximum Fall in Mean Arterial pressure) ([1]; dose 10 mg/kg of body weight given i.p., tested as the fumarate salt)","Max Fall BP (Maximum Fall in Mean Arterial pressure) ([1]; dose 10 mg/kg of body weight p.o., tested as the chloride salt)",EC30 ([2]; tested as free base) [nM]
"COc1ccc(/C=C\c2ccccc2)c(CC(C)NCCc2c(Cl)cccc2Cl)c1 (stereo not drawn) [Example 2d, N-[2-(2,6-Dichlorophenyl)ethyl]-5-methoxy-α-methyl-2Z-(2-phenylethenyl)benzeneethanamine (E)-2-Butenedioate (2:l)]",18 (30) mm of Hg,55,,,
"COc1cc(CCNC(C)Cc2cc(OC)ccc2/C=C\c2ccccc2)cc(OC)c1 (stereo not drawn) [Example 3c, N-[2-(3,5-Dimethoxyphenyl)ethyl]-5-methoxy-α-methyl-2Z-(2-phenylethenyl)benzeneethanamine (E)-2-Butenedioate (2:l)]",,57,38 (10)^b mm of Hg,,
"COc1ccc(/C=C\c2ccccc2)c(CC(C)NCCc2ccc(OC)c(OC)c2)c1 (stereo not drawn) [Example 4c, N-[2-(3,4-Dimethoxyphenyl)ethyl]-5-methoxy-α-methyl-2Z-(2-phenylethenyl)benzeneethanamine Hydrochloride]",21 (30) mm of Hg,2,,,
"COc1ccc(/C=C/c2ccccc2)c(CCC(C)N(C)CCc2ccc(OC)c(OC)c2)c1 (stereo not drawn) [Example 5, N-[2-(3,4-Dimethoxyphenyl)ethyl]-5-methoxy-N,α-dimethyl-2E-(2-phenylethenyl)benezenepronanamine Hydrochloride]",43 (30) mm of Hg,12,,,
"COc1ccc(/C=C\c2ccccc2)c(CCC(C)N(C)CCc2ccc(OC)c(OC)c2)c1 (stereo not drawn) [Example 6e, N-[2-(3,4-Dimethoxyphenyl)ethyl]-5-methoxy-N,α-dimethyl-2Z-(2-phenylethenyl)benzenepropanamine (E)-2-Butenedioate (2:l)]",17 (30) mm of Hg,19,,,
"COc1ccc(/C=C/c2ccccc2)c(CCCN(C)CCc2ccc(OC)c(OC)c2)c1 [Example 7e, N-[2-(3,4-Dimethoxyphenyl)ethyl]-5-methoxy-N-methyl-2E-(2-phenylethenyl)benzenepropanamine Biscyclohexylsulfamate]",16 (30) mm of Hg,0.4,,,
"COc1ccc(/C=C/c2ccccc2)c(CC(C)NCCc2ccc(OC)c(OC)c2)c1 (stereo not drawn) [Example 8b, N-[2-(3,4-Dimethoxyphenyl)ethyl]-5-methoxy-α-methyl-2E-(2-phenylethenyl)benzeneethanamine Hydrochloride]",77 (30) mm of Hg,1,,80 (10) mm of Hg,
"COc1ccc(/C=C/c2ccccc2)c(CC(C)NCCc2ccc(Cl)c(Cl)c2)c1 (stereo not drawn) [Example 9, N-[2-(3,4-Dichlorophenyl)ethyl)-5-methoxy-α-methyl-2E-(2-phenylethenyl)benzeneethanamine Hydrochloride]",90 (30) mm of Hg,24,,,
"COc1cc(CCNC(C)Cc2cc(OC)ccc2/C=C/c2ccccc2)cc(OC)c1 (stereo not drawn) [Example 10, N-[2-(3,5-Dimethoxyphenyl)ethyl]-5-methoxy-α-methyl-2E-(2-phenylethenyl)benzeneethanamine (E)-2-Butendioate (3:5)]",53 (30)* mm of Hg,,,,1
